# According to patent US20260183295A1, “METHODS AND COMPOSITIONS FOR TREATING CANCER” (Onconova Therapeutics, Inc., priority 2022, published 2026):
# Tests used:
# Akt pSer473 = assay: Western blot, MDA-MB-231 cells, 24 hours; assay type: cell-based; details: 2.5, 5, 10 μM, versus Comparator 1, 2 and 4
# PTX3 = biological target: T1, PTX3 (Homo sapiens, UniProt P26022); assay: CETSA-MS, MDA-MB-231 intact cells; assay type: cell-based; details: 2 μM and 20 μM
# T1 construct: endogenous in cells; host or cells: MDA-MB-231
# Procedure, shortened: (§1)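 Cells (TNBC line MDA-MB-231, grown 37° C., 5% CO2) split into four arms, incubated, then heat-challenged on a gradient; supernatant proteins precipitated with cold acetone, digested, isobarically labeled, analyzed by MS.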
# AP2S1 = biological target: T2, AP2S1 (Homo sapiens, UniProt P53680); assay: CETSA-MS, MDA-MB-231 intact cells; assay type: cell-based; details: 2 μM and 20 μM
# T2 construct: endogenous in cells; host or cells: MDA-MB-231
# Procedure, shortened: as §1
# SND1 = biological target: T3, SND1 (Homo sapiens, UniProt Q7KZF4); assay: CETSA-MS, MDA-MB-231 intact cells; assay type: cell-based; details: 2 μM and 20 μM
# T3 construct: endogenous in cells; host or cells: MDA-MB-231
# Procedure, shortened: as §1
# CST3 = biological target: T4, CST3 (Homo sapiens, UniProt P01034); assay: CETSA-MS, MDA-MB-231 intact cells; assay type: cell-based; details: 2 μM and 20 μM
# T4 construct: 148 targets unique to Compound 1 in MDA-MB-231 intact cells; endogenous in cells; host or cells: MDA-MB-231
# Procedure, shortened: as §1
# IFT52 = biological target: T5, IFT52 (Homo sapiens, UniProt Q9Y366); assay: CETSA-MS, MDA-MB-231 intact cells; assay type: cell-based; details: 2 μM and 20 μM
# T5 construct: endogenous in cells; host or cells: MDA-MB-231
# Procedure, shortened: as §1
# WTAP = biological target: T6, WTAP (Homo sapiens, UniProt Q15007); assay: CETSA-MS, MDA-MB-231 intact cells; assay type: cell-based; details: 2 μM and 20 μM
# T6 construct: endogenous in cells; host or cells: MDA-MB-231
# Procedure, shortened: as §1
# CCN1 = biological target: T7, CCN1 (Homo sapiens, UniProt O00622); assay: CETSA-MS, MDA-MB-231 intact cells; assay type: cell-based; details: 2 μM and 20 μM
# T7 construct: endogenous in cells; host or cells: MDA-MB-231
# Procedure, shortened: as §1
# GAK = biological target: T8, GAK (Homo sapiens, UniProt O14976); assay: CETSA-MS, MDA-MB-231 intact cells; assay type: cell-based; details: 2 μM and 20 μM
# T8 construct: 148 targets unique to Compound 1 in MDA-MB-231 intact cells; endogenous in cells; host or cells: MDA-MB-231
# Procedure, shortened: as §1
# SHCBP1 = biological target: T9, SHCBP1 (Homo sapiens, UniProt Q8NEM2); assay: CETSA-MS, MDA-MB-231 intact cells; assay type: cell-based; details: 2 μM and 20 μM
# T9 construct: endogenous in cells; host or cells: MDA-MB-231
# Procedure, shortened: as §1
# FOSB = biological target: T10, FOSB (Homo sapiens, UniProt P53539); assay: CETSA-MS, MDA-MB-231 intact cells; assay type: cell-based; details: 2 μM and 20 μM
# T10 construct: endogenous in cells; host or cells: MDA-MB-231
# Procedure, shortened: as §1
# HNRNPA1 = biological target: T11, HNRNPA1 (Homo sapiens, UniProt P09651); assay: CETSA-MS, MDA-MB-231 intact cells; assay type: cell-based; details: 2 μM and 20 μM
# T11 construct: 148 targets unique to Compound 1 in MDA-MB-231 intact cells; endogenous in cells; host or cells: MDA-MB-231
# Procedure, shortened: as §1
# SYNCRIP = biological target: T12, SYNCRIP (Homo sapiens, UniProt O60506); assay: CETSA-MS, MDA-MB-231 intact cells; assay type: cell-based; details: 2 μM and 20 μM
# T12 construct: endogenous in cells; host or cells: MDA-MB-231
# Procedure, shortened: as §1
# MAP2K5 = biological target: T13, MAP2K5 (Homo sapiens, UniProt Q13163); assay: CETSA-MS, MDA-MB-231 intact cells; assay type: cell-based; details: 2 μM and 20 μM
# T13 construct: endogenous in cells; host or cells: MDA-MB-231
# Procedure, shortened: as §1
# TTK = biological target: T14, TTK (Homo sapiens, UniProt P33981); assay: CETSA-MS, MDA-MB-231 intact cells; assay type: cell-based; details: 2 μM and 20 μM
# T14 construct: endogenous in cells; host or cells: MDA-MB-231
# Procedure, shortened: as §1
# HNRNPU = assay: CETSA-MS, MDA-MB-231 intact cells; assay type: cell-based; details: 2 μM and 20 μM
# Procedure, shortened: as §1
# PIP4P2 = biological target: T15, PIP4P2 (Homo sapiens, UniProt Q8N4L2); assay: CETSA-MS, MDA-MB-231 intact cells; assay type: cell-based; details: 2 μM and 20 μM
# T15 construct: endogenous in cells; host or cells: MDA-MB-231
# Procedure, shortened: as §1
# EIF4G1 = biological target: T16, EIF4G1 (Homo sapiens, UniProt Q04637); assay: CETSA-MS, MDA-MB-231 intact cells; assay type: cell-based; details: 2 μM and 20 μM
# T16 construct: endogenous in cells; host or cells: MDA-MB-231
# Procedure, shortened: as §1
# CDK7 = biological target: T17, CDK7 (Homo sapiens, UniProt P50613); assay: CETSA-MS, MDA-MB-231 intact cells; assay type: cell-based; details: 2 μM and 20 μM
# T17 construct: endogenous in cells; host or cells: MDA-MB-231
# Procedure, shortened: as §1
# CLUH = biological target: T18, CLUH (Homo sapiens, UniProt O75153); assay: CETSA-MS, MDA-MB-231 intact cells; assay type: cell-based; details: 2 μM and 20 μM
# T18 construct: endogenous in cells; host or cells: MDA-MB-231
# Procedure, shortened: as §1
# CDK17 = biological target: T19, CDK17 (Homo sapiens, UniProt Q00537); assay: CETSA-MS, MDA-MB-231 intact cells; assay type: cell-based; details: 2 μM and 20 μM
# T19 construct: endogenous in cells; host or cells: MDA-MB-231
# Procedure, shortened: as §1
# CRAT = biological target: T20, CRAT (Homo sapiens, UniProt P43155); assay: CETSA-MS, MDA-MB-231 intact cells; assay type: cell-based; details: 2 μM and 20 μM
# T20 construct: 148 targets unique to Compound 1 in MDA-MB-231 intact cells; endogenous in cells; host or cells: MDA-MB-231
# Procedure, shortened: as §1
# FOXK1 = biological target: T21, FOXK1 (Homo sapiens, UniProt P85037); assay: CETSA-MS, MDA-MB-231 intact cells; assay type: cell-based; details: 2 μM and 20 μM
# T21 construct: endogenous in cells; host or cells: MDA-MB-231
# Procedure, shortened: as §1
# LAMTOR2 = biological target: T22, LAMTOR2 (Homo sapiens, UniProt Q9Y2Q5); assay: CETSA-MS, MDA-MB-231 intact cells; assay type: cell-based; details: 2 μM and 20 μM
# T22 construct: endogenous in cells; host or cells: MDA-MB-231
# Procedure, shortened: as §1
# HSPA13 = biological target: T23, HSPA13 (Homo sapiens, UniProt P48723); assay: CETSA-MS, MDA-MB-231 intact cells; assay type: cell-based; details: 2 μM and 20 μM
# T23 construct: endogenous in cells; host or cells: MDA-MB-231
# Procedure, shortened: as §1
# GALNT7 = biological target: T24, GALNT7 (Homo sapiens, UniProt Q86SF2); assay: CETSA-MS, MDA-MB-231 intact cells; assay type: cell-based; details: 2 μM and 20 μM
# T24 construct: 148 targets unique to Compound 1 in MDA-MB-231 intact cells; endogenous in cells; host or cells: MDA-MB-231
# Procedure, shortened: as §1
# STK3 = biological target: T25, STK3 (Homo sapiens, UniProt Q13188); assay: CETSA-MS, MDA-MB-231 intact cells; assay type: cell-based; details: 2 μM and 20 μM
# T25 construct: endogenous in cells; host or cells: MDA-MB-231
# Procedure, shortened: as §1
# AXL = biological target: T26, AXL (Homo sapiens, UniProt P30530); assay: CETSA-MS, MDA-MB-231 intact cells; assay type: cell-based; details: 2 μM and 20 μM
# T26 construct: endogenous in cells; host or cells: MDA-MB-231
# Procedure, shortened: as §1
# CXCL10 = assay: qPCR of T-cell recruiting chemokine mRNA, PyMT cells; assay type: cell-based, mouse
# MDA-MB-453 = assay: MTT cell viability, 48 hours; assay type: cell-based; details: Homo sapiens, MDA-MB-453 (TNBC), read-out: 48 h-cell viability decrease
# Method: (§2) A panel of […] breast cancer cell lines: T-47D, BT-474, MDA-MB-453, MDA-MB-468, HCC-1937, Hs578T, and MDA-MB-231, was treated for 48 hours with 5 μM Compound 1 and the cell viability was measured using the MTT assay. TABLE 6 summarizes the cell lines, and the change in viability after 48 hours of treatment with Compound 1.
# BT-474 = assay: MTT cell viability, 48 hours; assay type: cell-based; details: Homo sapiens, BT-474 (HR+ HER2+), read-out: 48 h-cell viability decrease
# Method: as §2
# MDA-MB-231 = assay: MTT cell viability, 48 hours; assay type: cell-based; details: Homo sapiens, MDA-MB-231 (TNBC), read-out: 48 h-cell viability decrease
# Method: as §2
# HCC-1937 = assay: MTT cell viability, 48 hours; assay type: cell-based; details: Homo sapiens, HCC1937, 48 h, HCC-1937 (TNBC), read-out: 48 h-cell viability decrease
# Method: as §2
# T25 sequence (Q13188 whole entry): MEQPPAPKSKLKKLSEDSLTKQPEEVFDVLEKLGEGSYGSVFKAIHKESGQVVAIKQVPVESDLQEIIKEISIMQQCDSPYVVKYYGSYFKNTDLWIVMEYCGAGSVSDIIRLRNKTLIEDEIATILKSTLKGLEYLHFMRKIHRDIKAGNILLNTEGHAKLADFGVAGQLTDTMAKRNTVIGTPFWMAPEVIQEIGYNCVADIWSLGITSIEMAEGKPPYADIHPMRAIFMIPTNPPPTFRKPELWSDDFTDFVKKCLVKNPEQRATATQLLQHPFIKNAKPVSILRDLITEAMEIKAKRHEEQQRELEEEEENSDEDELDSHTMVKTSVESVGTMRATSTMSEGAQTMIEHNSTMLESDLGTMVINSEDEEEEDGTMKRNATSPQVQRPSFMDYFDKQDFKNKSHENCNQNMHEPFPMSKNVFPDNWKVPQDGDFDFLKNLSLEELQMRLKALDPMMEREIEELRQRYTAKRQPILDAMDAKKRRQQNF
# T26 sequence (P30530 26-894): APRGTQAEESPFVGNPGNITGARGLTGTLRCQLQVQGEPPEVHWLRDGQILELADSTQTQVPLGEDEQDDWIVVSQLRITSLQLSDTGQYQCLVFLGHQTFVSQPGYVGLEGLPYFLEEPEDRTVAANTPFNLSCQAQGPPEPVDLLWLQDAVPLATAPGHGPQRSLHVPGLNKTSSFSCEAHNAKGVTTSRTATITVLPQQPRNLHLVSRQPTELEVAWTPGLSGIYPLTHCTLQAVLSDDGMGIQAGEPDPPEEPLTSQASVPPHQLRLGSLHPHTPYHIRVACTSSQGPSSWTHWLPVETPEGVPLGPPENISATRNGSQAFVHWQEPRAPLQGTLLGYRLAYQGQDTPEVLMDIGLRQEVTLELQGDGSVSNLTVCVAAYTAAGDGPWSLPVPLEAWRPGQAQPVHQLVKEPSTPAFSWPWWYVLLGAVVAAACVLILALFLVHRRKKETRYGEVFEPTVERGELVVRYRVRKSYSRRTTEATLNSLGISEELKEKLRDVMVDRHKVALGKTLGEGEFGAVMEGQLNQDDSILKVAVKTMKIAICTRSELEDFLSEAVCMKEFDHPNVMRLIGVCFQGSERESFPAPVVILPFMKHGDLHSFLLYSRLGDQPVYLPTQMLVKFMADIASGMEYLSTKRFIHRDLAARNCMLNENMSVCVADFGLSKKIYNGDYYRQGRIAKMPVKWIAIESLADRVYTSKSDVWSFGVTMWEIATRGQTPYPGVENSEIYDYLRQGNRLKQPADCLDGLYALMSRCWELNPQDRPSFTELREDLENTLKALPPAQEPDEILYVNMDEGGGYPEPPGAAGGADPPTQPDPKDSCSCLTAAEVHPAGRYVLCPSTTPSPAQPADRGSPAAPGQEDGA
# T6 sequence (Q15007 whole entry): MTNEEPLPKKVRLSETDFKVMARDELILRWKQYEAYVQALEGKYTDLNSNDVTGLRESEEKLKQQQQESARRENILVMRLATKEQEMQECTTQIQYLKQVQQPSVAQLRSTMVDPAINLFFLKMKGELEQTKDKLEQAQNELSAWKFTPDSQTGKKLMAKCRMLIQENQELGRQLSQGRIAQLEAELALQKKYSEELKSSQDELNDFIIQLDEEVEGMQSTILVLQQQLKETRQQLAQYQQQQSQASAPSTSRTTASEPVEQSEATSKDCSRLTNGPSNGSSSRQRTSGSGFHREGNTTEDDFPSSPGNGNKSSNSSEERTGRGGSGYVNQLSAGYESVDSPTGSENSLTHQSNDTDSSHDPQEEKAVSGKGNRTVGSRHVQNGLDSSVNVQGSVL
# T3 sequence (Q7KZF4 whole entry): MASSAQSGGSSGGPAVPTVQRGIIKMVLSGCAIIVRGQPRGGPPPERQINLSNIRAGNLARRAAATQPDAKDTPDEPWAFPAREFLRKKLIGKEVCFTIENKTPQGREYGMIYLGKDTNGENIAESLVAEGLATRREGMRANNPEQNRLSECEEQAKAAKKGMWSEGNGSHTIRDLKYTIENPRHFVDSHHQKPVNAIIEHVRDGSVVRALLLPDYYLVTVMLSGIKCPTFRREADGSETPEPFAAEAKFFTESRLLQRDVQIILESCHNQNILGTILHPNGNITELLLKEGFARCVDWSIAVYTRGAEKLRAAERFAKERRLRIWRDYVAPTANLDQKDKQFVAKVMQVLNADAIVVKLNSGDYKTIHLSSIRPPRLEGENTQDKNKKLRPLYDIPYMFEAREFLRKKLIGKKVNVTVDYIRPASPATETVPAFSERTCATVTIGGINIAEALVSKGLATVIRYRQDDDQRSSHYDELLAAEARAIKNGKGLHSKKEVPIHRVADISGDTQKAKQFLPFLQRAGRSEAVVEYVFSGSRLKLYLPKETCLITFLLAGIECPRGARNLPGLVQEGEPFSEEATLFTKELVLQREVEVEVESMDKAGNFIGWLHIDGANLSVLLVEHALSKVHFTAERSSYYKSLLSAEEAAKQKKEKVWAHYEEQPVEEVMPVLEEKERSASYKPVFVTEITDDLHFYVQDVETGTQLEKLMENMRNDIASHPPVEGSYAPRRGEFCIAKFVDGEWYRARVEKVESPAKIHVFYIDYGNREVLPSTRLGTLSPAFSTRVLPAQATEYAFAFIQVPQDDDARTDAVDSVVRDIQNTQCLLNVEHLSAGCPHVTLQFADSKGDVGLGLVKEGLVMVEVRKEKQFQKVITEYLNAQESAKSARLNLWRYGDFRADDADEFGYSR
# T11 sequence (P09651 whole entry): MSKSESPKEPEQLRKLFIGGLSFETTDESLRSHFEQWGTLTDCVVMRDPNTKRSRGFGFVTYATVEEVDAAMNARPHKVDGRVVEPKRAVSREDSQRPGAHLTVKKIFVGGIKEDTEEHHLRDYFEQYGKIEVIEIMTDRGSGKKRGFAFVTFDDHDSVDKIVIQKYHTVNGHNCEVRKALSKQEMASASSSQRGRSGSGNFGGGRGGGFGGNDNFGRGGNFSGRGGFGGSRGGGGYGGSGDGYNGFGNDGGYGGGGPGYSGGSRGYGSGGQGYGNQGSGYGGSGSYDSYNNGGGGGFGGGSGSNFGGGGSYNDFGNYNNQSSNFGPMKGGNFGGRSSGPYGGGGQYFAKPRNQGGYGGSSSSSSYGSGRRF
# T17 sequence (P50613 2-346 limits assumed): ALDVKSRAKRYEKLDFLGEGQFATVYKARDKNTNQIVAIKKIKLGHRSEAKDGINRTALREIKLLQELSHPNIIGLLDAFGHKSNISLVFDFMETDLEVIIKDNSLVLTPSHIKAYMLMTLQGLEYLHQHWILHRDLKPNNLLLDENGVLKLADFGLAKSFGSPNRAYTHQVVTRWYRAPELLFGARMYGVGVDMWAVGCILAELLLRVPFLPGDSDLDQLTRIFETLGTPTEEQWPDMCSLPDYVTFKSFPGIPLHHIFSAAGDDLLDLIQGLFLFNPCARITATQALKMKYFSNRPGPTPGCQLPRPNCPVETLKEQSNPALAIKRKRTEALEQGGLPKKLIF
# T17 sequence (P51946 whole entry partner): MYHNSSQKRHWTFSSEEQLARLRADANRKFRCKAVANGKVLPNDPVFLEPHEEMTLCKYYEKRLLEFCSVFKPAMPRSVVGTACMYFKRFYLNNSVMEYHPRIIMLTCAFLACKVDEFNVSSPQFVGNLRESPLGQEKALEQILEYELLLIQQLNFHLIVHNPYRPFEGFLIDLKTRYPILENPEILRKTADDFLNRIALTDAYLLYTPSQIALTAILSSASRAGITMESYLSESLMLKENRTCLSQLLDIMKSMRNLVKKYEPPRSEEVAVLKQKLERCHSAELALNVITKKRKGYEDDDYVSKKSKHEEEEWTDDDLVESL
# T17 sequence (P51948 whole entry partner): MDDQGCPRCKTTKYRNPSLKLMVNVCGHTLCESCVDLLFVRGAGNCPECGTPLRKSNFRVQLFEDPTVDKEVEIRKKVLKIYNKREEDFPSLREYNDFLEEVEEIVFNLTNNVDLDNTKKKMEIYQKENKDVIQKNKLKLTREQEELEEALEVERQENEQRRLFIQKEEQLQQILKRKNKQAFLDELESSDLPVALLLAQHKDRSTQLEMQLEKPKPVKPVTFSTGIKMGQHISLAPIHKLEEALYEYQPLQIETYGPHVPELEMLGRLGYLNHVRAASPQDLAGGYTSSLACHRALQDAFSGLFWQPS
# T7 sequence (O00622 25-381): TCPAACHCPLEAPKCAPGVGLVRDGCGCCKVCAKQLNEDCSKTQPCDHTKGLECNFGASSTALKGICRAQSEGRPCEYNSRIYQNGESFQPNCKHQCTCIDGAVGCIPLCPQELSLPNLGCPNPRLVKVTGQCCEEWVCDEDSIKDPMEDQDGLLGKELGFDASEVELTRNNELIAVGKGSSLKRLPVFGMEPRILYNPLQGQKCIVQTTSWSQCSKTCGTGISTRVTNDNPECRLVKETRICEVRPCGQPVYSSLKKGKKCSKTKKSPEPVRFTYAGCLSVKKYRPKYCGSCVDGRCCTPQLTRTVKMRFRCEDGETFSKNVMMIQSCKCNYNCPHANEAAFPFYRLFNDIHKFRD
# T23 sequence (P48723 23-471): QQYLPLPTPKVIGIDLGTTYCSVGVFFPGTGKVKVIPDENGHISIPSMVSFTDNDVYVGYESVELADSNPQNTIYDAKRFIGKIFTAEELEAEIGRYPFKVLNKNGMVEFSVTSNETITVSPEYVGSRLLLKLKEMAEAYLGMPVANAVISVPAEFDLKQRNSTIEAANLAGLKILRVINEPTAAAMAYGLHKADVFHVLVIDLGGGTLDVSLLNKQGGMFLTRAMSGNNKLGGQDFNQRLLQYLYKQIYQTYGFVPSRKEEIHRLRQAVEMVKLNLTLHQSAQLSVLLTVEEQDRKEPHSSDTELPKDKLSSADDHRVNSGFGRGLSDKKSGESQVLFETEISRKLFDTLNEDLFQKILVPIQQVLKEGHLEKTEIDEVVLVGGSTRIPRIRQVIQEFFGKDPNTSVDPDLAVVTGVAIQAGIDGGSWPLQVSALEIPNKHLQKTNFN
# T22 sequence (Q9Y2Q5 whole entry): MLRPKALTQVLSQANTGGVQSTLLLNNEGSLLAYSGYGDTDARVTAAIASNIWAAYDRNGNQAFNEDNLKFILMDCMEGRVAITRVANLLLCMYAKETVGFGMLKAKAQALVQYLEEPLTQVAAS
compound,measurement,setting,value
"CN1CCN(c2ccc(Nc3ncc4cc(C#N)c(=O)n(C5CCCC5)c4n3)cc2)CC1 [Compound 1, 8-cyclopentyl-2-((4-(4-methylpiperazin-1-yl)phenyl)amino)-7-oxo-7,8-dihydropyrido[2,3-d]pyrimidine-6-carbonitrile]",Akt pSer473 levels,Akt pSer473,decreasing
same,Group (CETSA-MS thermal shift),PTX3,Stabilization
same,Group (CETSA-MS thermal shift),AP2S1,Destabilization
same,Group (CETSA-MS thermal shift),SND1,Stabilization
same,Group (CETSA-MS thermal shift),CST3,Stabilization
same,Group (CETSA-MS thermal shift),IFT52,Stabilization
same,Group (CETSA-MS thermal shift),WTAP,Stabilization
same,Group (CETSA-MS thermal shift),CCN1,Stabilization
same,Group (CETSA-MS thermal shift),GAK,Stabilization
same,Group (CETSA-MS thermal shift),SHCBP1,Destabilization
same,Group (CETSA-MS thermal shift),FOSB,Destabilization
same,Group (CETSA-MS thermal shift),HNRNPA1,Stabilization
same,Group (CETSA-MS thermal shift),SYNCRIP,Stabilization
same,Group (CETSA-MS thermal shift),MAP2K5,Destabilization
same,Group (CETSA-MS thermal shift),TTK,Stabilization
same,Group (CETSA-MS thermal shift),HNRNPU,Stabilization
same,Group (CETSA-MS thermal shift),PIP4P2,Stabilization
same,Group (CETSA-MS thermal shift),EIF4G1,Destabilization
same,Group (CETSA-MS thermal shift),CDK7,Destabilization
same,Group (CETSA-MS thermal shift),CLUH,Stabilization
same,Group (CETSA-MS thermal shift),CDK17,Stabilization
same,Group (CETSA-MS thermal shift),CRAT,Stabilization
same,Group (CETSA-MS thermal shift),FOXK1,Destabilization
same,Group (CETSA-MS thermal shift),LAMTOR2,Stabilization
same,Group (CETSA-MS thermal shift),HSPA13,Stabilization
same,Group (CETSA-MS thermal shift),GALNT7,Stabilization
same,Group (CETSA-MS thermal shift),STK3,Destabilization
same,Group (CETSA-MS thermal shift),AXL,Stabilization
same,time of peak CXCL10 mRNA levels,CXCL10,~48 h
same,CXCL10 mRNA levels,"CXCL10; 24, 48 and 72 hours",large increase
same,cytotoxicity at 5 µM,MDA-MB-453,50%
same,cytotoxicity at 5 µM,BT-474,50%
same,cytotoxicity at 5 µM,MDA-MB-231,60%
same,cytotoxicity at 5 µM,HCC-1937,20%
